The target in assay [1] is T1, Steroid 5-α-Reductase (Homo sapiens, UniProt P31213).
T1 construct: microsomes derived from prostate tissue of benign prostatic hypertrophy (BPH) patients; from tissue; host or cells: prostate tissue of BPH patients, microsomes
T1 sequence (P31213 1-254): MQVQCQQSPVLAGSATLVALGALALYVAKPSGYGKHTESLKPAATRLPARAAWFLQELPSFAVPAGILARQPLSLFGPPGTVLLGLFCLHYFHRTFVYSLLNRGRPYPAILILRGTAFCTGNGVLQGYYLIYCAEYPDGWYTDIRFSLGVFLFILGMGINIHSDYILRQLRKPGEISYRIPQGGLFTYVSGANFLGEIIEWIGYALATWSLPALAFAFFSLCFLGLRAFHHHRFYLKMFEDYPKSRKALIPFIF
As to the kind of experiment: Steroid 5-α-reductase in vitro assay, human prostate microsomes (BPH patients). In kind it is biochemical. The settings on record: human prostatic microsomes; 100 nM [3H]-testosterone, 1 mM NADPH, 60 minutes at 37° C.

Assay [2] has as its target Steroid 5-α-Reductase. The assay can be described thus: Steroid 5-α-reductase in vitro assay, rat prostate microsomes. The format is biochemical. The settings on record: rat prostatic microsomes; 100 nM [3H]-testosterone, 1 mM NADPH, 60 minutes at 37° C.; read-out: ID50 Rat.

Each structure is given as a SMILES string.

IC50 data for 34 compounds are collected here from patent publication US5543406A, “Inhibitors of 5-α-testosterone reductase” (priority 1994, dated 1996).

Consider `CCN(CC)C(=O)[C@H]1CC[C@H]2[C@@H]3CN(C)C4=CC(=O)CC[C@]4(C)[C@H]3CC[C@]12C` [Compound 2, 17β-N,N-Diethylcarbamoyl-6-methyl-6-azaandrost-4-en-3-one], for which the figures for the IC50 in assay [1] and in assay [2] were less than 10 nM and 10 to 100 nM, respectively.

In the case of `CCN(CC)C(=O)[C@H]1CC[C@H]2[C@@H]3CN(CCC(=O)OC)C4=CC(=O)CC[C@]4(C)[C@H]3CC[C@]12C` [Compound 46, 17β-N,N-Diethylcarbamoyl-6-(methyl-3-propanoate)-6-azaandrost-4-en-3-one], the IC50 in assay [1] was 100 to 1000 nM.

As for `C[C@]12CC[C@H]3[C@@H](CNC4=CC(=O)CC[C@@]43C)[C@@H]1CC[C@@H]2C(=O)Nc1cccc2cc3ccccc3cc12` [Compound 67, 17β-N-1-Anthracylcarbamoyl-6-azaandrost-4-en-3-one], the IC50 in assay [1] and in assay [2] was less than 10 nM in each case.

For the compound `CN1C[C@H]2[C@@H]3CC[C@H](C(=O)O)[C@@]3(C)CC[C@@H]2[C@@]2(C)CCC(=O)C=C12` [Compound 25, 17β-Carboxy-6-methyl-6-azaandrost-4-en-3-one], in assay [1], the IC50 was 100 to 1000 nM.

In assay [1], `CCC1=C2NC[C@H]3[C@@H]4CC[C@H](C(=O)N(CC)CC)[C@@]4(C)CC[C@@H]3[C@@]2(C)CCC1=O` [Compound 12, 17β-N,N-Diethylcarbamoyl-6-azaandrost-4-ethyl-4-en-3-one] showed an IC50 of 100 to 1000 nM.

As to `CCN(CC)C(=O)[C@H]1CC[C@H]2[C@@H]3CN(CCCO)C4=CC(=O)CC[C@]4(C)[C@H]3CC[C@]12C` [Compound 15, 17β-N,N-Diethylcarbamoyl-6-(3-hydroxypropyl)-6-azaandrost-4-en-3-one], in assay [1], the IC50 lay in the range of 100 to 1000 nM.

In assay [1], `CCN(CC)C(=O)[C@H]1CC[C@H]2[C@@H]3CN(CC(=O)O)C4=CC(=O)CC[C@]4(C)[C@H]3CC[C@]12C` [Compound 44, 17β-N,N-Diethylcarbamoyl-6-(2-acetic acid)-6-azaandrost-4-en-3-one] displayed an IC50 of 100 to 1000 nM.

`CCOC(=O)CCCCCN1C[C@H]2[C@@H]3CC[C@H](C(=O)N(CC)CC)[C@@]3(C)CC[C@@H]2[C@@]2(C)CCC(=O)C=C12` [Compound 51, 17β-N,N-Diethylcarbamoyl-6-(ethyl-6-hexanoate)-6-azaandrost-4-en-3-one] gave an IC50 in assay [1] of 100 to 1000 nM.

As for `CC1=C2N(C)C[C@H]3[C@@H]4CC[C@H](C(=O)NC(C)(C)C)[C@@]4(C)CC[C@@H]3[C@@]2(C)CCC1=O` [Compound 69, 17β-N-t-Butylcarbamoyl-6-methyl-6-azaandrost-4-methyl-4-en-3-one], the IC50 in assay [2] was in the range of 100 to 1000 nM.

`C=CCN1C[C@H]2[C@@H]3CC[C@H](C(=O)N(CC)CC)[C@@]3(C)CC[C@@H]2[C@@]2(C)CCC(=O)C=C12` [Compound 42, 17β-N,N-Diethylcarbamoyl-6-allyl-6-azaandrost-4-en-3-one]: the IC50 in assay [1] lay within 100 to 1000 nM.

In assay [1], `CCN(CC)C(=O)[C@H]1CC[C@H]2[C@@H]3CN(CCCCCC(=O)O)C4=CC(=O)CC[C@]4(C)[C@H]3CC[C@]12C` [Compound 50, 17β-N,N-Diethylcarbamoyl-6-(6-hexanoic acid)-6-azaandrost-4-en-3-one] gave an IC50 of 100 to 1000 nM.

`CCN(CC)C(=O)[C@H]1CC[C@H]2[C@@H]3CN(CC4CC4)C4=CC(=O)CC[C@]4(C)[C@H]3CC[C@]12C` [Compound 41, 17β-N,N-Diethylcarbamoyl-6-methylenecyclopropyl-6-azaandrost-4-en-3-one] registered an IC50 in assay [1] of 100 to 1000 nM.

`C[C@]12CC[C@H]3[C@@H](CNC4=CC(=O)CC[C@@]43C)[C@@H]1CC[C@@H]2C(=O)NC(c1ccccc1)(c1ccccc1)c1ccccc1` [Compound 71, 17β-N-Triphenylmethylcarbamoyl-6-azaandrost-4-en-3-one] gave an IC50 in assay [1] of less than 10 nM.

For `CCN(CC)C(=O)[C@H]1CC[C@H]2[C@@H]3CN(CCCCC(=O)O)C4=CC(=O)CC[C@]4(C)[C@H]3CC[C@]12C` [Compound 48, 17β-N,N-Diethylcarbamoyl-6-(5-pentanoic acid)-6-azaandrost-4-en-3-one], the IC50 in assay [1] was in the range of 100 to 1000 nM.

Take `CCN(CC)C(=O)[C@H]1CC[C@H]2[C@@H]3CN(C(C)C)C4=CC(=O)CC[C@]4(C)[C@H]3CC[C@]12C` [Compound 39, 17β-N,N-Diethylcarbamoyl-6-isopropyl-6-azaandrost-4-en-3-one]: the IC50 in assay [1] was less than 10 nM.

In assay [1], `CN1C[C@H]2[C@@H]3CC[C@H](C(=O)NC(C)(C)C)[C@@]3(C)CC[C@@H]2[C@]2(C)C1=CC(=O)[C@@H]1C[C@@H]12` [Compound 34, 17β-N-t-Butylcarbamoyl-6-methyl-6-azaandrost-1α,2α-cyclopropyl-4-en-3-one] displayed an IC50 of 10 to 100 nM.

Consider `CCN(CC)C(=O)[C@H]1CC[C@H]2[C@@H]3CN(CCCCC(=O)OC)C4=CC(=O)CC[C@]4(C)[C@H]3CC[C@]12C` [Compound 49, 17β-N,N-Diethylcarbamoyl-6-(methyl-5-pentanoate)-6-azaandrost-4-en-3-one], for which, in assay [1], the IC50 fell in the range of 100 to 1000 nM.

Take `CC(C)(C)NC(=O)[C@H]1CC[C@H]2[C@@H]3CNC4=CC(=O)CC[C@]4(C)[C@H]3CC[C@]12C` [Compound 3, 17β-N-t-Butylcarbamoyl-6-azaandrost-4-en-3-one]: the IC50 in assay [2] fell in the range of 10 to 100 nM.

`C[C@]12CC[C@H]3[C@@H](CNC4=CC(=O)CC[C@@]43C)[C@@H]1CC[C@@H]2C(=O)Nc1cccc2ccccc12` [Compound 72, 17β-N-1-Napthylcarbamoyl-6-azaandrost-4-en-3-one] registered an IC50 in assay [1] of less than 10 nM.

The compound `CCN(CC)C(=O)[C@H]1CC[C@H]2[C@@H]3CN(CCOC)C4=CC(=O)CC[C@]4(C)[C@H]3CC[C@]12C` [Compound 54, 17β-N,N-Diethylcarbamoyl-6-(2-methoxyethyl)-6-azaandrost-4-en-3-one] gave an IC50 in assay [1] of 100 to 1000 nM.

With `CCN(CC)C(=O)[C@H]1CC[C@H]2[C@@H]3CNC4=C(C)C(=O)CC[C@]4(C)[C@H]3CC[C@]12C` [Compound 11, 17β-N,N-Diethylcarbamoyl-6-azaandrost-4-methyl-4-en-3-one], in assay [2], the IC50 was 100 to 1000 nM.

In assay [1], `CCN(CC)C(=O)[C@H]1CC[C@H]2[C@@H]3CN(CCCCN4C(=O)c5ccccc5C4=O)C4=CC(=O)CC[C@]4(C)[C@H]3CC[C@]12C` [Compound 53, 17β-N,N-Diethylcarbamoyl-6-(4-phthalimidylbutyl)-6-azaandrost-4-en-3-one] had an IC50 of 100 to 1000 nM.

For `C[C@]12CC[C@H]3[C@@H](CNC4=CC(=O)C=C[C@@]43C)[C@@H]1CC[C@@H]2C(=O)NC12CC3CC(CC(C3)C1)C2` [Compound 30, 17β-N-1-Adamantylcarbamoyl-6-azaandrost-1,4-dien-3-one], the IC50 in assay [1] was less than 10 nM.

Take `CCN(CC)C(=O)[C@H]1CC[C@H]2[C@@H]3CNC4=C(C#N)C(=O)CC[C@]4(C)[C@H]3CC[C@]12C` [Compound 13, 17β-N,N-Diethylcarbamoyl-6-azaandrost-4-cyano-4-en-3-one]: the IC50 in assay [1] lay within 100 to 1000 nM.

In turn, `CCN(CC)C(=O)[C@H]1CC[C@H]2[C@@H]3CNC4=C(CN(C)C)C(=O)CC[C@]4(C)[C@H]3CC[C@]12C` [Compound 14, 17β-N,N-Diethylcarbamoyl-6-azaandrost-4-dimethylaminomethylene-4-en-3-one] returned an IC50 in assay [1] of 100 to 1000 nM.

`CC(C)CC(=O)[C@H]1CC[C@H]2[C@@H]3CN(C)C4=CC(=O)CC[C@]4(C)[C@H]3CC[C@]12C` [Compound 26, 17β-(1-Oxo-3-methylbutyl)-6-methyl-6-azaandrost-4-en-3-one]: the IC50 in assay [2] is 10 to 100 nM.

As to `CCN(CC)C(=O)[C@H]1CC[C@H]2[C@@H]3CN(CC(C)C)C4=CC(=O)CC[C@]4(C)[C@H]3CC[C@]12C` [Compound 40, 17β-N,N-Diethylcarbamoyl-6-isobutyl-6-azaandrost-4-en-3-one], the IC50 in assay [1] fell in the range of 100 to 1000 nM.

`CCN(CC)C(=O)[C@H]1CC[C@H]2[C@@H]3CNC4=C(Cl)C(=O)CC[C@]4(C)[C@H]3CC[C@]12C` [Compound 8, 17β-N,N-Diethylcarbamoyl-6-azaandrost-4-chloro-4-en-3-one]: the IC50 in assay [2] was 10 to 100 nM.

Take `CC(C)CC(=O)[C@H]1CC[C@H]2[C@@H]3CNC4=C(Br)C(=O)CC[C@]4(C)[C@H]3CC[C@]12C` [Compound 66, 17β-(1-Oxo-3-methylbutyl)-6-azaandrost-4-bromo-4-en-3-one]: the IC50 in assay [2] was in the range of 10 to 100 nM.

Take `CCN(CC)C(=O)[C@H]1CC[C@H]2[C@@H]3CN(C)C4=C(C)C(=O)CC[C@]4(C)[C@H]3CC[C@]12C` [Compound 68, 17β-N,N-Diethylcarbamoyl-6-methyl-6-azaandrost-4-methyl-4-en-3-one]: the IC50 in assay [2] was 100 to 1000 nM.

Regarding `CCN(CC)C(=O)[C@H]1CC[C@H]2[C@@H]3CNC4=C(F)C(=O)CC[C@]4(C)[C@H]3CC[C@]12C` [Compound 70, 17β-N,N-Diethylcarbamoyl-6-azaandrost-4-fluoro-4-en-3-one], the IC50 in assay [1] lay within 10 to 100 nM.

`CCN(CC)C(=O)[C@H]1CC[C@H]2[C@@H]3CN(CCC(=O)O)C4=CC(=O)CC[C@]4(C)[C@H]3CC[C@]12C` [Compound 45, 17β-N,N-Diethylcarbamoyl-6-(3-propanoic acid)-6-azaandrost-4-en-3-one] came in with an IC50 in assay [1] of 100 to 1000 nM.

As to `CCN(CC)C(=O)[C@H]1CC[C@H]2[C@@H]3CN(CCCN4C(=O)c5ccccc5C4=O)C4=CC(=O)CC[C@]4(C)[C@H]3CC[C@]12C` [Compound 52, 17β-N,N-Diethylcarbamoyl-6-(3-phthalimidylpropyl)-6-azaandrost-4-en-3-one], the IC50 in assay [1] was in the range of 100 to 1000 nM.

In assay [1], `CCN(CC)C(=O)[C@H]1CC[C@H]2[C@@H]3CN(CCCC(=O)O)C4=CC(=O)CC[C@]4(C)[C@H]3CC[C@]12C` [Compound 47, 17β-N,N-Diethylcarbamoyl-6-(4-butanoic acid)-6-azaandrost-4-en-3-one] had an IC50 of 100 to 1000 nM.
